Measured values reported in patent US11661404B2, “Prodrug compounds activated by AKR1C3 and their use for treating hyperproliferative disorders” (priority 2018, dated 2023).
Read-outs that look alike come from different tables or passages of the source.

Legend:
AKR1C3 mixed MCLs = conditions: cited from earlier work
[1] = test system: wild-type HCT116 colon cancer cells; assay: Anti-proliferative IC50 under oxic and anoxic conditions; format: cell-based, human; conditions: for IC50: Homo sapiens, HCT-116; for Hypoxic Cytotoxicity Ratio (HCR): oxic vs anoxic IC50, HCT116-WT
Excerpt: PR-104A was initially designed and optimised as a hypoxia-selective cytotoxin (Patterson et al, Clinical Cancer Research, 2007, 13, 3922-3932). In the context of an AKR1C3-activated prodrug, this route of activation is considered off-mechanism and may potentially be undesirable, leading to off-target toxicities in a subject. Preferred compounds of the invention have been determined to be substantially resistant to hypoxia-dependent activation and cytotoxicity in wild-type HCT116 colon cancer cells. HCT116 cells were treated with compounds of the invention under either oxic or anoxic conditions and then their degree of anti-proliferative activity determined.
Selected compounds were evaluated for cytotoxic potential (IC50) under anoxic conditions. The same procedures as described above for Examples 9-11 were carried out in a Bactron anoxic chamber (Sheldon Manufacturing Inc) with internal 37° C. incubators where palladium catalyst scrubbed gas (90% N2, 5% H2, 5% CO2) ensured severe anoxia (<0.001% O2) in the whole chamber. All materials required (including cells) were taken into the chamber through two cycles of vacuum and gassing with 100% N2, followed by a single cycle with 5% CO2 and 5% hydrogen in nitrogen. All experimental materials were placed in the anoxic chamber at least 3 days prior to the day required for the experiment in order to remove any traces of residual O2. The medium used for the 96-well plates in the anoxic chamber consisted of α-MEM+10% (v/v) FBS+1% (v/v) additives (1 M β-D-Glucose and 20 mM 2′-Deoxycytidine).

[2] = Stability in solution by HPLC in water and lactate buffer; format: physicochemical; conditions: room temperature
Procedure: (§1) The solubility and stability of compound 641 was studied by HPLC in lactate buffer (pH 4) and water as the free base and the mesylate salt (641.Ms) at 0° C. and room temperature (RT). […] However, this was improved considerably by formulation as the mesylate salt, producing a solubility of greater than 100 mmol/L in lactate buffer and greater than 70 mmol/L in water. […] This stability was improved considerably by reducing the temperature of the solution to 0° C.

[3] = Solubility by HPLC in water and lactate buffer; format: physicochemical; conditions: lactate buffer (pH 4), room temperature
Procedure: as §1

[4] = test system: mixed HCT116 colon cancer MCLs containing 5% AKR1C3 over-expressing cells; assay: High cell density multicellular layer (MCL) assay, bystander cell killing; format: cell-based, human
Procedure: The MCL model utilised for this evaluation consisted of AKR1C3 overexpressing (activator) cells or non-AKR1C3 expressing (target) cells or a mixture of these two cell types grown in a ratio of 5:95. The mixture of the two distinct cell populations enabled the determination of the extent of the transfer of cytotoxic metabolites from the activator cell to the target cell population.
Plating efficiencies were calculated as the fraction of colonies formed relative to the number of cells seeded. The compound concentrations for 10% survival (C10) of target cells grown without activators (T), targets in co-culture (Tc) and activators in co-culture (Ac) was determined by interpolation. Bystander effect efficiency (BEE) was calculated as (Log C10T−Log C10Tc)/(Log C10T−Log C10Ac), where BEE is the measure of cytotoxic metabolite transfer. In contrast to PR-104A, preferred compounds of the invention have a minimal BEE, reducing off-target side effects from ablation of neighbouring non-AKR1C3 expressing cells.
Millicell-CM membrane inserts were coated in calf-skin collagen type III. The collagen solution was prepared dissolving in sterile 0.01 N HCl to a concentration of 3 mg/mL. The collagen solution was diluted (1:5) in sterile 60% ethanol and 100 μL of this solution was used to coat the membrane inserts and left overnight in a sterile environment to dry.
Prior to adding cells, the inserts were sterilised in 70% ethanol and left to aerate in a sterile environment in order for the ethanol to evaporate. A sterile polyethylene foam ring was placed around each insert to enable subsequent floatation. Single cell suspensions of 1×10^6 cells in a volume of 500 μL was added to each insert. When mixtures of cells were required, 1×10^6 cells of the mixed cell suspension (in 500 μL) were added to each insert. The type of mixed MCLs used in experiments consisted of 95% HCT116^NeoR and 5% HCT116^AKR1C3 cells. The HCT116^NeoR ells were used in this mixture as an AKR1C3 negative cell line which can subsequently be grown in selective medium containing Geneticin (G418), and which enabled discrimination with the AKR1C3 positive cell line (which can be grown in selective medium containing puromycin). The inserts containing cells were placed in a sterile screw-top plastic jar containing 300 mL of α-MEM+10% v/v FBS+1% PSG, with a maximum of 6 inserts in a jar. The inserts were left floating in the medium for 4 hours in a humidified incubator (37° C., 5% CO2) to enable cells to adhere to the collagen coat and then submerged in the medium with a sterile stainless steel grid. Cells were left to grow and form MCLs on the inserts for a period of 3 days by placing the jars in a 37° C. water bath with continuous magnetic stirring of the medium.
Three days after growth of cells as MCLs in inserts, each insert was inspected with an inverted phase contrast microscope to ensure uniform growth of cells. Suitable MCLs were transferred to 25 mL glass vessels containing 10 mL of medium (α-MEM+10% v/v FBS+1% PSG) with the required drug concentrations. Each insert in the glass vessel was held by a stainless steel loop attached to the lid. The vessels were placed in a 37° C. water bath. Ports on the lid of each bottle enabled gassing with the required gas phase. The glass vessels containing the MCL inserts and drug were left in the 37° C. water bath for 5 hours with continuous gassing and magnetic stirring of medium. The gas phase used was 5% CO2:95% O2, with the high oxygen concentration used to minimise bioreductive drug activation by endogenous one-electron reductases.
After the 5 hour incubation, each insert was trypsinised in 0.07% trypsin in PBS for 10 minutes at 37° C. to dissociate the MCL into a single cell suspension. The dissociated cells were incubated for a further 10 minutes in α-MEM containing 10% FBS and 100 μg/ml DNAase I. Cells were then counted on a Z2 Coulter® Particle Count and Size Analyzer and resuspended in fresh medium. […]

[5] = anoxic (<0.001% O2), read-out: HCT116-WT Anti-proliferative IC50 Anoxic
[6] = read-out: HCT116-WT Anti-proliferative IC50 Oxic
[7] = 95% HCT116^NeoR : 5% HCT116^AKR1C3, 5 hours

CN1CCN(C(=O)c2cc([N+](=O)[O-])ccc2N(CCBr)CCBr)CC1 [SN34118, reference compound]
BEE reported in AKR1C3 mixed MCLs (AKR1C3 mixed MCLs; Silva, MSc Thesis): 52.7%

CN1CCN(S(=O)(=O)c2cc([N+](=O)[O-])ccc2N(CCBr)CCOS(C)(=O)=O)CC1 [Compound 602, 2-((2-bromoethyl)(2-((4-methylpiperazin-1-yl)sulfonyl)-4-nitrophenyl)amino)ethyl methanesulfonate]
IC50 [1, 5]: 3.51 µM | IC50 [1, 6]: 4.26 µM

CN1CCN(S(=O)(=O)c2cc([N+](=O)[O-])ccc2N(CCOS(C)(=O)=O)CCOS(C)(=O)=O)CC1 [Compound 641, ((2-((4-methylpiperazin-1-yl)sulfonyl)-4-nitrophenyl)azanediyl)bis(ethane-2,1-diyl) dimethanesulfonate]
Stability (% Parent after 24 hours), Lactate Buffer, RT ([2]; lactate buffer (pH 4)): 54.4% | half-life ([2]; pH 4, lactate buffer): ~24 h | Solubility, Lactate Buffer, RT [3]: 3.4 mM | IC50 [1, 5]: 2.52 µM | IC50 [1, 6]: 5.91 µM | Hypoxic Cytotoxicity Ratio (HCR) [1]: 2 | shift in the C10 from T to Tc ([4]; 5% AKR1C3-positive cells): 9 fold | activators in co-culture C10 (Ac) [4, 7]: 0.0054 µM | targets in co-culture C10 (Tc) [4, 7]: 1.27 µM | AKR1C3-positive HCT116 cells clonogenically sterilised ([4]; concentrations 0.002 μM to 0.2 μM, FIG. 8): at least 99.9% | sensitivity of AKR1C3 expressing cells vs AKR1C3-negative cells to clonogenic cell kill (T/Ac) ([4]; high cell density): 2055 fold | target cell C10 (T), concentration for 10% survival ([4]; target cells grown without activators, 5 hours exposure, clonogenic survival): 11.1 µM

CS(=O)(=O)OCCN(CCBr)c1c(C(=O)NCCO)cc([N+](=O)[O-])cc1[N+](=O)[O-] [PR-104A, 2-((2-bromoethyl)(2-((2-hydroxyethyl)-carbamoyl)-4,6-dinitrophenyl)amino)ethyl methanesulfonate, reference compound]
bystander effect (literature) (AKR1C3 mixed MCLs; Foehrenbacher et al, 2013): substantial bystander effect | IC50 [1, 5]: 2.83 µM | IC50 [1, 6]: 55.8 µM | Hypoxic Cytotoxicity Ratio (HCR) [1]: 20
